# Laboratory results: patent US9393329B2, “N-alkoxyamide conjugates as imaging agents” (Lantheus Medical Imaging, Inc., priority 2009, dated 2016)
# Key:
# [1] = tested on: aorta bearing atherosclerotic plaque; experiment: Ex-vivo blood vessel binding assay; design: species or system New Zealand white rabbits; settings: 153Gd-labeled compound 0.135 μCi in phosphate buffered saline, plaque-bearing rabbit aorta sections, 2 h at 37° C., washed; percentage of initial activity
# Procedure: Aorta bearing atherosclerotic plaque was obtained from New Zealand white rabbits that were balloon stripped along the abdominal aorta and placed on a high fat diet (0.5% cholesterol) for 16-22 weeks. Vascular injury was produced with a 4-F Fogarty catheter along the abdominal aorta and right iliofemoral artery. This procedure generates an accelerated complex lesion development with a lipid rich core covered by a fibrous cap in rabbits. Harvested aorta sections (0.5 cm) were incubated with 0.135 μCi of ^153Gd-labeled compound diluted in phosphate buffered saline (450 μL) for 2 h at 37° C. The supernatant was removed and analyzed by HPLC to assay compound stability. The tissue section was then washed with phosphate buffered saline (3×10 mL), then resuspended (10 mL) and incubated at 37° C. an additional 1 h. The supernatant was then removed, the washing process repeated and the tissue finally counted on a gamma counter. The amount of compound bound to the tissue was determined as a percentage of the initial activity according to the following formula: […]
# [2] = tested on: aorta of apolipoprotein E (ApoE) knockout mouse; experiment: In-vivo ApoE mouse aorta uptake studies; settings: ApoE knockout mice on high-fat diet, 0.3-0.4 mCi/kg bolus via tail vein; for aorta:blood / aorta:heart: 60 min, ratio; for aorta uptake (% ID/g): tissue harvested at 60 min
# Procedure: Mice were fed a high-fat diet to accelerate plaque formation and compounds were tested in the mice between 35-42 weeks on diet. Test compounds were administered at 0.3-0.4 mCi/kg to anesthetized mice in a single, bolus injection via the tail vein. Blood samples were collected via the tail between 0-30 min post injection for pharmacokinetic analysis and mice were euthanized by CO2 at 60 min for tissue harvesting. The aorta was first flushed with saline through the left ventricle exiting via the femoral vein then removed from the heart to the renal bifurcation; additional biological samples were also collected (blood, muscle, liver, kidney, bile, urine, heart, femur, reproductive organ, lung, spleen and innominate artery). All samples were weighed and assayed for radioactivity; uptake is expressed as a percentage of injected dose per gram of tissue (% ID/g).
SMILES,% bound [1] [%],aorta:blood [2],aorta:heart [2],aorta uptake (% ID/g) [2] [% ID/g]
CONC(=O)[C@@H](CCc1ccccc1)NCc1ccc(CNC(=O)CN2CCN(CC(=O)[O-])CCN(CC(=O)[O-])CCN(CC(=O)[O-])CC2)cc1.[153Gd+3] [Example 52],6.9,2.0,9.2,6.1 ± 1.2
O=C([O-])CN1CCN(CC(=O)[O-])CCN(CC(=O)NCc2ccc(CN[C@H](CCc3ccccc3)C(=O)NOCc3ccccc3)cc2)CCN(CC(=O)[O-])CC1.[153Gd+3] [Example 53],–,0.8,4.2,1.5 ± 0.1
CONC(=O)C(N)Cc1ccc(CNC(=O)CN2CCN(CC(=O)[O-])CCN(CC(=O)[O-])CCN(CC(=O)[O-])CC2)cc1.[153Gd+3] (stereo not shown) [Example 54],–,1.2,5.3,2.5 ± 0.5
NC(Cc1ccc(CNC(=O)CN2CCN(CC(=O)[O-])CCN(CC(=O)[O-])CCN(CC(=O)[O-])CC2)cc1)C(=O)NOCc1ccccc1.[153Gd+3] (stereo not shown) [Example 55],–,1.0,8.8,3.0 ± 2.3
